Measured values as given in publication PMC12169663, “Deciphering the Tumor Uptake of Heterobivalent (SST2/Albumin) [^64Cu]Cu-NODAGA-cLAB-TATEs” (Journal of Medicinal Chemistry, 2025).
*1 amine or outer side, *2 acyl side, *3 side chain or, on linkers, in order; H or OH if unused. Where a SMILES comes first, the peptide text is derived from it. Bridges are numbered along the chain shown (N, C = ends). [ ]: non-standard residue; d: D form. The star is where a group is joined. Ala(1-(4-CO-Ph)triazol-4-yl) = O=C([C@H](Cc1cn(-c2ccc(C(=O)[*:3])cc2)nn1)N[*:1])[*:2]; X1 = O=C(O)CN1CCN(CC(=O)O)CCN([C@H](CCC(=O)*)C(=O)O)CC1; X2 = Cc1ccc(CCCC(=O)NCCCC[C@H](N*)C(N)=O)cc1; AEEA = NCCOCCOCC(=O)O

What was measured:
[1] = target: T1, SST2 (Mus musculus, UniProt P30875); assay: Saturation binding analysis to SST2 using intact MPC cells
T1 construct: a mouse pheochromocytoma cell line (MPC) with a high endogenous abundance of SST2 was used; endogenous in cells; host or cells: MPC (mouse pheochromocytoma) cells, intact
Description: Binding assay was performed as previously described. , A number of 3 × 10^5 cells/cm^2 were seeded in collagen-coated 48-well microplates (CELLSTAR 48 Well Cell Culture Multiwell Plates, Polystyrene, Greiner Bio-One, item no. 677180) and grown for 3 days. For binding assays, the cell culture medium was removed and replaced by fresh medium supplemented with the radioligand (Am = 25 MBq/nmol) at increasing final concentrations between 0.321 and 40 nM (final sample volume: 0.2 mL). Nonspecific cell binding was measured in the presence of nonlabeled DOTA-TATE or Acetyl-TATE at a final concentration of 1 μM. Nonspecific binding to plastic surfaces was determined in cell-free wells at radioligand concentrations of 0.312, 1.25, 5, and 20 nM (with and without 1 μM nonlabeled DOTA-TATE or Acetyl-TATE; the values at the other radioligand concentrations were derived by linear regression). Samples were incubated for 60 min at 37 °C. Incubation was stopped by washing with ice-cold Dulbecco’s PBS. Cells were lysed with 0.1 M NaOH containing 1% (w/v) SDS. Activity was measured in cell homogenates and in a series of radioligand standards containing increasing molar amounts between 0.06 and 8 pmol using the gamma counter Wizard (PerkinElmer). The protein content of cell homogenates was measured as described above. Measurements for total binding were performed in triplicate, while measurements for nonspecific binding were performed in duplicates.
Calculations were performed as previously described. , Plots of “total binding” = f(radioligand) were analyzed by nonlinear regressions using the model of “one site-total, accounting for ligand depletion” as implemented in GraphPad Prism and plots of “nonspecific binding” = f(radioligand) were analyzed by linear regressions (Figure S3). For the ligand depletion model, the term “NS” was constrained to the respective slopes obtained by the linear regressions. The terms “SpecAct” (obtained with standard curves, Figure S4) and “Vol” (0.2 mL, assay volume) were also constrained. […]

[2] = Plasma stability assay, human plasma; type: in vitro ADME; conditions: 37 °C, up to 24 h, single experiment, read-out: t1/2 (plasma), human
Text: Previously, we discovered that the ^64Cu-labeled NODAGA-cLAB-TATEs with a primary amide functionality within the albumin-binding moiety are subject to a metabolic transformation in mouse plasma. In fact, the primary amide is slowly hydrolyzed to the carboxylic acid, which turned out to be catalyzed by plasma carboxylesterases as proven by blocking this transformation in the presence of bis-para-nitrophenylphosphate. […] As this transformation entails also an increase in the binding affinity to albumin, there might be effects on the biodistribution in mice, in particular the blood circulation time. To investigate this, NODAGA-cLAB6-TATE was designed, with cLAB6 (N3Bz-D-Lys(MPB)-NH2) representing the D-configured pendant of cLAB4 (N3Bz-L-Lys(MPB)-NH2). […] However, the apparent half-lives for both compounds (≈13 and >24 h) are longer compared to the half-lives previously determined for [ ^ 64 Cu]-Cu-NODAGA-cLAB3-TATE and [ ^ 64 Cu]-Cu-NODAGA-cLAB4-TATE (≈6 and ≈3 h, respectively). […]
Plasma stability of the radioligands was done as previously described for NODAGA-cLAB-TATE and NODAGA-NES-TATEs. , Briefly, an aliquot of the radioligand was added to plasma and stability was assessed at different time points by withdrawing an aliquot, followed by protein precipitation and analysis by radio-HPLC.

[3] = test system: MPC cells; assay: Cell binding and uptake (internalization) in MPC cells; type: cell-based, mouse
Description: Furthermore, the receptor-mediated endocytosis (referred to as internalization) of the novel compounds was assessed. The values for the internalized fraction (or “acid wash” resistant fraction) were >50% (Figure S5), which might indicate a similar pharmacological behavior of these ligands upon binding to SST2 as the parent ligand TATE.
Cell binding and uptake were measured as previously described. , MPC cells were seeded into collagen-coated 24-well microplates and cultivated for 4 days. All washing steps were performed using PBS containing 0.9 mM CaCl2 and 0.5 mM MgCl2. Total radioligand uptake was measured after incubation with the radioligand (A m = 30 GBq/μmol) at a final concentration of 20 nM in RPMI 1640 medium with GlutaMAX supplement (Thermo Fisher Scientific) for 1 h at 37 and 4 °C. Nonspecific binding was determined in the presence of 20 μM Acetyl-TATE. The uptake fraction was measured after acid wash of cell surface-bound radioligand with wash buffer containing 0.05 M glycine, pH 2.8, for 5 min. The activity of cell homogenates was measured using the γ counter Wizard (PerkinElmer). The protein content of cell homogenates was measured as described above.
Figure S5: Cell binding data
Data shown in A and B are mean values (±SD) of one experiment (NODAGA-cLAB(5/6)- TATE and NODAGA-cLAB4-scrTATE) or 3 experiments (±SEM, DOTA-EB-TATE), which were performed in sextuplicate. In C, the amount of specific “internalized” (acid resistant) radioligand (red bars in A, mean values) is expressed as percentage of specific total -bound radioligand (blue bars in A, mean values). The difference to 100% was assigned to “surface - bound” radioligand. For a better overview, the compound names were abbreviated. […]
specific binding of radioligand
Incubation at 37°C for 1 h
(% dose/mg of protein) Washing with
Incubation at 4°C for 1 h […]
(1 picture or pasted object on this page, not shown here)

[4] = n-Octanol/PBS distribution coefficient (log D7.4)
Description: The log D7.4 values of the ^64Cu-labeled peptides were determined with the octanol partitioning method.
The determination of the log D7.4 value was done in triplicate as previously described. , Briefly, a sample of the radioligand was added to the 1:1 mixture of PBS/n-octanol. The radioactivity in a defined volume of each layer was measured (ISOMED 2100). The distribution coefficient was expressed as the logarithm of the ratio of counts per minute (cpm) measured in the n-octanol phase to the cpm measured in the PBS phase.

[5] = target: human serum albumin (HSA) (Homo sapiens, UniProt P02768); assay: Radiometric ultrafiltration assay for binding to HSA
Chain of human serum albumin (HSA) (P02768 25-609): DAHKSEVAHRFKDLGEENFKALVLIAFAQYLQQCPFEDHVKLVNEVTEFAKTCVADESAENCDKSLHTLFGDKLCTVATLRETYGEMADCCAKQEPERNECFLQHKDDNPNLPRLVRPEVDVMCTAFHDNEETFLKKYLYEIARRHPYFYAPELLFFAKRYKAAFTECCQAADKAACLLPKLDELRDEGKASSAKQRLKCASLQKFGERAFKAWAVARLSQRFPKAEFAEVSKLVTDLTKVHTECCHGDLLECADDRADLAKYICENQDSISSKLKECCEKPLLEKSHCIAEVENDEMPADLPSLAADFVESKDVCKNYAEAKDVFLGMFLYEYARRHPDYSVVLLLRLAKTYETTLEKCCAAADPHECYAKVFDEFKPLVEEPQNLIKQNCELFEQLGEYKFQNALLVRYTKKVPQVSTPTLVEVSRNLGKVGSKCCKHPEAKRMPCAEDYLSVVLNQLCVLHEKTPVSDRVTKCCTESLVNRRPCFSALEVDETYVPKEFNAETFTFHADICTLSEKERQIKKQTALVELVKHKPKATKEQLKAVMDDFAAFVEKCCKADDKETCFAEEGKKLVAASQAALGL
Description: The ultrafiltration assay used to quantify the binding of the ^64Cu-labeled peptides to HSA was performed as previously described for NODAGA-cLAB-TATEs. , Briefly, a constant activity amount of the radioligands (10–15 MBq) were mixed with different HSA concentrations (200 nM–1.4 mM). Aliquots were loaded into the ultrafiltration devices (4104 centrifugal filter units by Millipore; 30 000 Da nominal molecular weight limit, methylcellulose micropartition membranes) and centrifuged. After centrifugation, aliquots from the top and bottom fractions were measured in a γ-counter (PerkinElmer, Wizard^2 2480 automatic gamma counter). The retained fraction was calculated as a quotient of these measurements. The dissociation constant, K d, was calculated using the Morrison equation.

T1 sequence (P30875 whole entry): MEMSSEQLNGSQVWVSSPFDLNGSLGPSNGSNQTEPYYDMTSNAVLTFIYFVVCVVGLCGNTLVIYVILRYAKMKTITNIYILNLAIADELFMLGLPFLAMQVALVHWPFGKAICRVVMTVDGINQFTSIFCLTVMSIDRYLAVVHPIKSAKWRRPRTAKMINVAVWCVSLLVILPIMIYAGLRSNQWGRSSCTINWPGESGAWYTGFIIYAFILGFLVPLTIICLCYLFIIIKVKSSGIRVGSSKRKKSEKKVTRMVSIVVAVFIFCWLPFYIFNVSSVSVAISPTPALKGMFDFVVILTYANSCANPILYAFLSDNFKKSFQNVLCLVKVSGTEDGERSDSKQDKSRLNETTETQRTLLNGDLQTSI

Kd [SST2] ([1]; 60 min 37 °C, mean (±SEM) of 2–4 experiments): no binding was detected and n.b.
Bmax ([1]; mean (±SEM)): n.b.
half-life [2]: > 24 h
logD [4]: -2.17
Kd [5]: 42 µM
Structure (SMILES): Cc1ccc(CCCC(=O)NCCCC[C@H](NC(=O)c2ccc(-n3cc(C[C@H](NC(=O)CC[C@H](C(=O)O)N4CCN(CC(=O)O)CCN(CC(=O)O)CC4)C(=O)NCCOCCOCC(=O)N[C@@H](CCCCN)C(=O)N[C@H]4CSSC[C@@H](C(=O)N[C@H](C(=O)O)[C@@H](C)O)NC(=O)[C@@H](Cc5c[nH]c6ccccc56)NC(=O)[C@@H](Cc5ccccc5)NC(=O)[C@H]([C@@H](C)O)NC(=O)[C@H](Cc5ccc(O)cc5)NC4=O)nn3)cc2)C(N)=O)cc1 [[64Cu]Cu-NODAGA-cLAB4-scrTATE, metal not drawn] (X1-[Ala(1-(4-CO-Ph)triazol-4-yl)](X2)[AEEA]KCYT[dF][dW]CT-OH; disulfide 4-9)
binding in the cell binding and uptake assay ([3]; MPC cells, 20 nM, 1 h): no binding at all
specific binding of radioligand ([3]; incubation at 4 °C for 1 h, washing with PBS pH 7.4, 20 nM): 0.01 % dose/mg of protein
specific binding of radioligand ([3]; incubation at 4 °C for 1 h, washing with glycine buffer pH 2.8, 20 nM): 0.03 % dose/mg of protein
specific binding of radioligand ([3]; incubation at 37 °C for 1 h, washing with PBS pH 7.4 (total bound), 20 nM): 0.02 %dose/mg of protein
specific binding of radioligand ([3]; incubation at 37 °C for 1 h, washing with glycine buffer pH 2.8 (acid resistant), 20 nM): 0.04 %dose/mg of protein
